Source: patent US20100292183A1, “TETRACYCLINE AND USES THEREOF” (priority 2009, published 2010)

Legend:
[1] = test system: induced mouse models of atherosclerosis; assay: induced mouse models of atherosclerosis; type: in vivo, mice
Description: Inducing atherosclerotic plaque development in mice is disclosed in details in U.S. patent application Ser. No. 12/286,368, which is herein incorporated by reference in its entirety. These mouse models are used for testing tetracycline-acenocoumorol conjugate to determine their efficacy both on reducing progression of plaque development and symptoms of chronic inflammation. Mice purchased from vendors are used for in vivo atherosclerotic plaque development by multiple doses of plaque complexes by intra-peritoneal and intravenous routes as described U.S. patent application Ser. No. 12/286,368. […] Ovastatin, an established anti-atherosclerotic drug (Schwartz et al, 2001) is used for control purposes in these studies and administered by oral route.
Ovastatin, tetracycline, clopidogrel or any anti-coagulant individually and tetracycline-clopidogrel (0.1-5 mg/kg per day) are orally administrated to the symptomatic and asymptomatic atherosclerotic mice models for 8 to 12 weeks. Following administration of the drugs, mice with asymptomatic plaque development are euthanized and blood collected via cardiac puncture. The blood samples will be used test clotting or blood coagulation test to analyse anti-coagulation efficacy of drugs used.

[2] = doses between 12.5 and 300 mg twice daily; cited from earlier work

Structure (SMILES)	plaque accumulation, histochemical analysis of heart tissues ([1]; asymptomatic mice model, after treatment)	symptoms of plaque inflammation ([1]; mice with plaque induced chronic inflammation, compared to control animal without treatment)	safety profile [2]
CC[C@H](C)C(=O)O[C@H]1C[C@@H](C)C=C2C=C[C@H](C)[C@H](CC[C@@H]3C[C@@H](O)CC(=O)O3)[C@H]21 [ovastatin]	reduced plaque accumulation	reduced symptoms of plaque inflammation	–
[H]/N=C(/N)c1ccc(NCc2nc3cc(C(=O)N(CCC(=O)O)c4ccccn4)ccc3n2C)cc1 [dabigatran]	–	–	good safety profile
